From patent US5922557A, “System for stably expressing a high-affinity camp phosphodiesterase and use thereof” (Merck & Co., Inc., priority 1998, dated 1999)
“Also recorded” adds a separate entry of the source. Like-named read-outs stand apart in the source and are kept apart here.

Key:
[1] = target: T1, recombinant full-length human PDE IVa (rhPDEIVa) (Homo sapiens, UniProt P27815, M723I); assay: Phosphodiesterase Scintillation Proximity Assay, inhibition of soluble rhPDE IVa (100,000×g supernatant of transfected CHO-K1 cells); type: biochemical; details: broken-cell preparation; data not shown
T1 construct: a cDNA insert encoding for a full-length human PDE IVa enzyme; made in house; host or cells: CHO-K1 cells, stably transfected (also expressing the prostanoid IP receptor); 100,000xg supernatant of the sonicate
T1 sequence (P27815 whole entry M723I): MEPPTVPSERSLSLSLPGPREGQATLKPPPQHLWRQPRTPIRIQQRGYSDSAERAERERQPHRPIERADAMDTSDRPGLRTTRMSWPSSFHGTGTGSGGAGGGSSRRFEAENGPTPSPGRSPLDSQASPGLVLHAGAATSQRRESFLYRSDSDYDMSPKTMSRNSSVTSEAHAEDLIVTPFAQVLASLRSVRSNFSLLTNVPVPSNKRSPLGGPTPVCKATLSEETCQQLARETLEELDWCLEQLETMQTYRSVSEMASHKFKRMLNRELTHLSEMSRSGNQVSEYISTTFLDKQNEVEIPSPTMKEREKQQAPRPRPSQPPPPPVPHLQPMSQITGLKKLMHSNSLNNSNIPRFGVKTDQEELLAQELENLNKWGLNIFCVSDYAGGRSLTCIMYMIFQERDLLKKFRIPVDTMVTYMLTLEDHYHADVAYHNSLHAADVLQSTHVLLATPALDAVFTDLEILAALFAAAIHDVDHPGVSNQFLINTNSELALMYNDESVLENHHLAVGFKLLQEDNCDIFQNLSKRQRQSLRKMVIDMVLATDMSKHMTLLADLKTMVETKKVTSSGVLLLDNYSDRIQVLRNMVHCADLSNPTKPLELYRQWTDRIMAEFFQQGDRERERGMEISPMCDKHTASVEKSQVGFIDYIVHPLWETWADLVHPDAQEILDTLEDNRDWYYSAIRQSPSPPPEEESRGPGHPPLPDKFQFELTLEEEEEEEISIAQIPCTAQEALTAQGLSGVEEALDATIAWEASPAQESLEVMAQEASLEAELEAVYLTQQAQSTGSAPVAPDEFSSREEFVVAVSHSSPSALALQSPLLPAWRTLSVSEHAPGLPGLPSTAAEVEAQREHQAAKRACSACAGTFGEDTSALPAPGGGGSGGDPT

[2] = test system: CHO-K1 cells stably expressing rhPDE IVa; assay: cells; type: cell-based; details: for effect of preincubation on sensitivity of the enzyme to inhibitors: whole-cell preparation, data not shown
Experimental: Levels of cAMP were measured in CHO-K1 cells stably expressing PDE IVa enzyme as outlined in Materials and Methods.
CHO-K1 cells were plated at a density of 10^6 cells/175 cm^2 containing complete media with 500 μg/ml hygromycin. The flasks were maintained in an incubator at 37° C. with 5.0% CO2 for 72 hr. The media was changed and the cells were allowed to grow overnight. The cells were washed and dissociated from the plate with PBS containing 0.5 mM EDTA. Cellular cAMP content was measured by centrifuging the cell suspension at 150 g×10 min and resuspending the cells in a Hanks buffered salt solution at a density of 0.2×10^6 cells/ml. The cells were preincubated at room temperature for 15 min and then incubated with 10 μM prostaglandin I2 (PGI2) and the indicated compound for an additional 10 min. Basal cAMP levels were determined by incubating the cells in 0.1% DMSO. The incubations were terminated by the addition of HCl (0.1N final) and the cells measured for cAMP.
Determinations of whole-cell cAMP content were performed by incubating 100 μl reconstituted rabbit anti-succinyl cAMP serum with 100 μl of the whole-cell reaction or known cAMP standard and 30 pmol of 125I-cAMP TME in a […]™ well (300 μl final volume) at room temperature for 18 h. Total cpm (Bo) was determined in the absence of sample or cAMP standard. The reaction mixture was then aspirated out of the well, and individual wells were counted in a BECKMAN LS 6000SC with the window open from 10-999 for 1 min. The data were expressed as %B/Bo=[(standard or sample cpm--non-specific cpm)/(Bo cpm-non-specific cpm)]×100. Non-specific cpm were determined by incubating only the 125I-cAMP TME with assay buffer (50 mM acetate; pH 5.8) in the ScintiStrip™ well. All determinations were performed in triplicate.

[3] = target: T1, recombinant full-length human PDE IVa (rhPDEIVa); assay: Phosphodiesterase Scintillation Proximity Assay, inhibition of soluble rhPDE IVa (100,000×g supernatant of transfected CHO-K1 cells); type: biochemical
Experimental: Inhibition of soluble rhPDEIVa by specific inhibitors was examined at 100 nM substrate. Enzyme activity was determined as described in Materials and Methods using the Amersham SPA beads that specifically bind 5'AMP.
Inhibition of soluble rhPDEIVa by specific inhibitors was examined in the presence of 5 mM to 100 mM MgCl2. Enzyme activity was determined as described in Materials and Methods using the Amersham SPA beads that specifically bind 5'AMP in the presence of […] cAMP substrate.

[4] = test system: PKA in CHO-K1 cells stably expressing PDE IVa; assay: Whole-cell cAMP dependent protein kinase (PKA) activity ratio; type: cell-based; details: CHO-K1; with 1 μM PGI2; read-out: apparent EC50 to activate PKA
Experimental: PKA activity ratios were determined as the amount of ^32 P transferred to histone F2B in the presence and absence of cAMP as described in Materials and Methods. Data points represent the fractional PKA activation by incubating cells with the indicated concentrations of inhibitor and […]. Experiments were performed in triplicate. n=3 experiments±SD.
CHO-K1 cells were grown and resuspended as described above except that the Hank's buffer was replaced by a solution containing 0.25M sucrose; 10 mM Tris, pH 7.5; and 0.5 mM EDTA. The cells were preincubated and incubated with 1 μM PGI2 and the indicated compounds at room temperature as described above. The incubations were terminated by the addition of 0.05% Triton X-100 (final) and incubating the cells for 5 min on ice. […] This mixture (final volume 220 μl) was incubated in a waterbath for 30 min at 35° C. and terminated by adding 5 ml of ice cold 5% TCA. The precipatated protein was applied to a Whatman GF/B filter under vacuum and the filter was subsequently washed with 3×5 ml ice cold TCA solution. The amount of -32P incorporation was measured by placing the filters in Aquasol and counting in a BECKMAN LSC 5000. Basal cAMP independent protein kinase activity was determined by the inclusion of 1 μM Protein Kinase A Peptide Inhibitor (19) in the reaction mixture. Maximal cAMP protein kinase activity was determined in the presence of 10 μM cAMP. All determinations were performed in triplicate and activity ratios were calculated as the [(kinase activity in the presence of PDE inhibitor minus cAMP independent kinase activity)/(maximal cAMP kinase activity minus cAMP independent kinase activity)]×100.

[5] = target: rhPDE IVa (Homo sapiens, UniProt P27815, M723I)
Sequence of rhPDE IVa (P27815 whole entry M723I): as above
Experimental: Shown is the saturable binding to the soluble rhPDE IVa enzyme with increasing concentrations of ligand from 0.2 to 100 nM (panal A).
(§1) The filters were quickly washed with an ice-cold solution of 50 mM Tris; pH 7.5.

[6] = target: FLAG PDE IVA (Homo sapiens, UniProt P27815, M723I)
Sequence of FLAG PDE IVA (P27815 whole entry M723I): as above
Experimental: Each point represents the mean of 3 separate experiments performed in duplicate±SEM. […] Each point represents the average of 3 separate experiments.
CHO-K1 cells stably expressing epitope FLAG PDE IV constructs were lysed by sonication for 10 secs at a power setting of 50% (Braunsonic Model 2000) in an ice cold solution containing 50 mM Tris, pH 7.5; 1 mM EDTA; protease inhibitor cocktail (Boehringer, Montreal, QUE). The soluble and particulate fractions of the cell were obtained by centrifuging the sonicate for 90 min at 100,000×g at 40° C. Twenty-five ml. […] The affinity matrix was washed with column buffer until all unbound protein was eluted from the column as determined with a UV-2 flow cell. Bound material was eluted with column buffer containing 0.5 mg/ml. FLAG peptide at a flow rate of 2 ml/min.
as §1

[7] = target: FLAG PDE IVAmet330 (Homo sapiens, UniProt P27815, M723I); type: binding; parameters: made in house; details: 0.2 to 100 nM [^3 H](R)-rolipram
Sequence of FLAG PDE IVAmet330 (P27815 332-886 M723I): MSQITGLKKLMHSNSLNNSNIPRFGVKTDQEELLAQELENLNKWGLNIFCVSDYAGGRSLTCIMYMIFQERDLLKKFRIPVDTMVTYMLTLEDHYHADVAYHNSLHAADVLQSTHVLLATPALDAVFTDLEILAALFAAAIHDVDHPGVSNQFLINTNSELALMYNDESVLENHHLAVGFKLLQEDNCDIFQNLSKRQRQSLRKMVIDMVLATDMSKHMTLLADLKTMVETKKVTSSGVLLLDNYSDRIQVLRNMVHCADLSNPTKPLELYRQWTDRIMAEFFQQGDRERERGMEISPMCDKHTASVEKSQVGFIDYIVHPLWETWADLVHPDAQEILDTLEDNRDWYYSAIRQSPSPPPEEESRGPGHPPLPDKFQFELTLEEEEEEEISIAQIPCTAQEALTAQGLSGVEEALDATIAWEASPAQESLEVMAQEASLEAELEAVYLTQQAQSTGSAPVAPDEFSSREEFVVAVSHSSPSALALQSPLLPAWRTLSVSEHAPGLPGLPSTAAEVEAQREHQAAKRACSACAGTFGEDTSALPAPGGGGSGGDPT
Experimental: CHO-K1 cells stably expressing epitope FLAG PDE IV constructs were lysed by sonication for 10 secs at a power setting of 50% (Braunsonic Model 2000) in an ice cold solution containing 50 mM Tris, pH 7.5; 1 mM EDTA; protease inhibitor cocktail (Boehringer, Montreal, QUE). The soluble and particulate fractions of the cell were obtained by centrifuging the sonicate for 90 min at 100,000×g at 40° C. […] The affinity matrix was washed with column buffer until all unbound protein was eluted from the column as determined with a UV-2 flow cell. Bound material was eluted with column buffer containing 0.5 mg/ml. FLAG peptide at a flow rate of 2 ml/min.
(§2) The filters were quickly washed with an ice-cold solution of 50 mM Tris; pH 7.5. […] Non-specific binding amounted to less than 5% of the total measured binding activity.

[8] = test system: HSA; assay: [3H](R)-rolipram binding to HSA; parameters: species or system human; details: presence or absence of 150 mM KCl
Experimental: as §2

[9] = test system: high-affinity rolipram binding site, rat forebrain membranes; details: cited from earlier work
[10] = Kinetic characterization of PDE IVa enzymes with cAMP as substrate; type: biochemical
Experimental: PDE IVa activity was assayed in the 100,000×g supernatant obtained from sonicated CHO-K1 cells stably expressing the enzyme. The enzyme activity was assayed in duplicate at substrate concentrations ranging from 0.2 μM to 30 μM using the Amersham SPA beads as described in Materials and Methods. Shown are the saturation kinetics for the enzyme. The inset graph is a double-reciprocal plot of the kinetic data. Average of 3 separate experiments +/- SD .
Panel A. Shown are the saturation kinetics for the enzyme.PDE IVA activity was assayed in the 100,000×g supernatant obtained from sonicated CHO-K1 cells stably expressing the enzyme. The enzyme activity was assayed in duplicate at substrate concentrations ranging from 0.2 mM to 10 mM using the Amersham SPA beads as described in Materials and Methods. Average of 3 separate experiments +/- SEM . Panel B. Double-reciprocal replot of the averaged saturation data.

For `C=C1[C@@H](O)[C@@H]2O[C@]3(CC[C@H](/C=C/[C@@H](C)[C@@H]4CC(C)=C[C@@]5(O[C@H](C[C@@](C)(O)C(=O)O)CC[C@H]5O)O4)O3)CC[C@H]2O[C@@H]1[C@@H](O)C[C@H](C)[C@H]1O[C@@]2(CCCCO2)CC[C@H]1C` [okadaic acid], the “effect of preincubation on sensitivity of the enzyme to inhibitors” value (“effect of preincubation … to inhibitors” below) [1] was “no effect on the sensitivity of the enzyme to inhibitors” and the “effect of preincubation … to inhibitors” value [2] was “no effect on the sensitivity of the enzyme to inhibitors”.

Work on `CCCCC[C@H](O)/C=C/[C@@H]1[C@H]2C/C(=C/CCCC(=O)O)O[C@H]2C[C@H]1O` [PGI2, prostaglandin I2] yielded a fold induction at 10 µM ([2]; CHO-K1, 10 min, read-out: increase in basal cAMP content) of 2 and an activation at 10 µM ([2]; CHO-K1, 10 min, PGI2 alone, read-out: increase in basal cAMP levels) of about 50%.

In the case of `CO[C@H]([C@H](O)CC(=O)[C@@H](C)[C@@H](O)CC[C@@H](C)[C@@H]1O[C@]2(CC[C@@H](C)[C@H](CC[C@H](C)C(C)=O)O2)CC[C@@H]1C)[C@H](OC(=O)C[C@@H](O)C1=C(C)C(=O)OC1=O)C(C)C` [tautomycin], the “effect of preincubation … to inhibitors” value [1] is reported as “no effect on the sensitivity of the enzyme to inhibitors” and the “effect of preincubation … to inhibitors” value [2] is reported as “no effect on the sensitivity of the enzyme to inhibitors”.

In the case of `O=[N+]([O-])c1cccc(-c2cc(Cc3ccncc3)cc3cccnc23)c1` [RS 14203], the IC50 ([3]; 100 nM cAMP substrate, read-out: IC50 for inhibition of soluble PDE IVa activity) is reported as 9 nM, the IC50 ([3]; 5 mM MgCl2, read-out: IC50, inhibition of soluble rhPDEIVa) is reported as 140 nM and the IC50 ([3]; 100 mM MgCl2, read-out: IC50, inhibition of soluble rhPDEIVa) is reported as 0.5 nM. For the same molecule, the “effect of increased salt / ionic strength on inhibitory potency (IC50)” value ([3]; increasing MgCl2 or other salt in assay buffer) was “became more potent; also recorded: salt dependent shift in IC50 from low to high affinity”, the EC50 [4] was 10 nM and the EC50 ([2]; CHO-K1, with 10 μM PGI2 (b116 prints 10 FM), read-out: EC50 for elevating cellular cAMP) was 27 nM. For the same molecule, the “cellular cAMP reached” value ([2]; with PGI2, from 0.2 pmol cAMP/10^4 cells) was 3.6 pmols cAMP/10^4 cells.

In the case of `COc1ccc([C@@H]2CNC(=O)C2)cc1OC1CCCC1` [[^3 H](R)-rolipram], the Bmax ([5]; 150 mM KCl) is reported as 0.47 pmol/20 μg prot, the “Hill coefficient of binding” value ([5]; 300 mM KCl) is reported as 2 and the Bmax ([5]; absence of added KCl) is reported as 0.16 pmol/20 μg prot. The Stochiometry ([6]; 0 mM KCl) was 0.02 (0.0) fmol [^3 H](R)-Rolipram/fmol P, the Bmax ([6]; 0 mM KCl + 3 mg/ml HSA) was 150 (47) fmol [^3 H](R)-rolipram and the Stochiometry ([6]; 0 mM KCl + 3 mg/ml HSA) was 0.10 (0.03) fmol [^3 H](R)-Rolipram/fmol P. For the same molecule, the Bmax ([6]; 3 mg/ml HSA) was 150±47 fmol/1.6 pmol enzyme, the “increase in Bmax” value ([6]; 3 mg/ml HSA) was 5 fold and the Bmax ([6]; 150 mM KCl) was 63 (16) fmol [^3 H](R)-rolipram. For the same molecule, the Stochiometry ([6]; 150 mM KCl) was 0.04 (0.01) fmol [^3 H](R)-Rolipram/fmol P, the Bmax ([6]; 150 mM KCl (text)) was 63±16 fmol/1.6 pmol enzyme and the Bmax ([6]; 150 mM KCl + 3 mg/ml HSA) was 240 (37) fmol [^3 H](R)-rolipram. The Stochiometry ([6]; 150 mM KCl + 3 mg/ml HSA) was 0.15 (0.03) fmol [^3 H](R)-Rolipram/fmol P, the Bmax ([6]; 150 mM KCl + 3 mg/ml HSA (text)) was 240 fmol/1.6 pmol purified enzyme and the “saturable high-affinity binding to truncated enzyme” value [7] was “did not exhibit any saturable binding; also recorded: does not display any saturable high-affinity [^3 H](R)-rolipram binding”. For the same molecule, the “specific binding to HSA” value [8] was “No specific binding”.

For `COc1ccc(C2CNC(=O)C2)cc1OC1CCCC1` (racemic) [(±)[3H] rolipram], the “increase in high-affinity binding” value ([9]; 100 mM NaCl and 1 mM MgCl2) is listed as 20 fold and the Bmax ([9]; rat forebrain membranes) is listed as 19.3 pmol/g rat forebrain.

`COc1ccc([C@H]2CNC(=O)C2)cc1OC1CCCC1` [(S)-rolipram] showed an EC50 [4] of 1000 nM.

B1: PDE IVa: recombinant full-length human PDE IVa enzyme stably expressed in CHO-K1 cells (protein, UniProt P27815 1-886, looked up)
chain: MEPPTVPSERSLSLSLPGPREGQATLKPPPQHLWRQPRTPIRIQQRGYSDSAERAERERQPHRPIERADAMDTSDRPGLRTTRMSWPSSFHGTGTGSGGAGGGSSRRFEAENGPTPSPGRSPLDSQASPGLVLHAGAATSQRRESFLYRSDSDYDMSPKTMSRNSSVTSEAHAEDLIVTPFAQVLASLRSVRSNFSLLTNVPVPSNKRSPLGGPTPVCKATLSEETCQQLARETLEELDWCLEQLETMQTYRSVSEMASHKFKRMLNRELTHLSEMSRSGNQVSEYISTTFLDKQNEVEIPSPTMKEREKQQAPRPRPSQPPPPPVPHLQPMSQITGLKKLMHSNSLNNSNIPRFGVKTDQEELLAQELENLNKWGLNIFCVSDYAGGRSLTCIMYMIFQERDLLKKFRIPVDTMVTYMLTLEDHYHADVAYHNSLHAADVLQSTHVLLATPALDAVFTDLEILAALFAAAIHDVDHPGVSNQFLINTNSELALMYNDESVLENHHLAVGFKLLQEDNCDIFQNLSKRQRQSLRKMVIDMVLATDMSKHMTLLADLKTMVETKKVTSSGVLLLDNYSDRIQVLRNMVHCADLSNPTKPLELYRQWTDRIMAEFFQQGDRERERGMEISPMCDKHTASVEKSQVGFIDYIVHPLWETWADLVHPDAQEILDTLEDNRDWYYSAIRQSPSPPPEEESRGPGHPPLPDKFQFELTLEEEEEEEISMAQIPCTAQEALTAQGLSGVEEALDATIAWEASPAQESLEVMAQEASLEAELEAVYLTQQAQSTGSAPVAPDEFSSREEFVVAVSHSSPSALALQSPLLPAWRTLSVSEHAPGLPGLPSTAAEVEAQREHQAAKRACSACAGTFGEDTSALPAPGGGGSGGDPT
modifications: full-length
notes: recombinant full-length human PDE IVa enzyme stably expressed in CHO-K1 cells
With B1 the Vmax ([10]; soluble PDE IVa from CHO-K1 cells) was 19.5 nM cAMP hydrolyzed/mg. protein per min and the Km ([10]; soluble PDE IVa from CHO-K1 cells, read-out: Km of the enzyme for cAMP as a substrate) was 3.5 µM.

B2: FLAG PDE IVA: purified full-length epitope FLAG PDE IVA enzyme (protein, UniProt P27815 1-886, looked up)
chain: B1 chain
modifications: full-length FLAG epitope tag
In the case of B2, the Vmax ([10]; 150 mM KCl, 0 mg/ml HSA) is reported as 9.7 ± 0.2 μm/mg/min, the Vmax ([10]; 150 mM KCl, 3 mg/ml HSA) is reported as 4.8 ± 0 μm/mg/min and the Km ([10]; 150 mM KCl, 3 mg/ml HSA, read-out: Km) is reported as 4.8 ± 0.1 µM.
